The assay concerns the target Serine/threonine-protein kinase mTOR (Homo sapiens) (UniProt P42345). As to the kind of experiment: mTOR FRB domain ligand binding – biophysical, NMR (AID 1648). Conditions: NMR binding to FRB domain, chemical shift.

This note sets out measurements from PubChem BioAssay AID1648 (Sanford-Burnham Center for Chemical Genomics, 2009).

Structures are written as SMILES. The source made the active and inactive calls. How the calls were made is not given here.

The Kd is a measure of binding affinity in units of concentration.

Serine/threonine-protein kinase mTOR (Homo sapiens), sequence (P42345 2015-2114): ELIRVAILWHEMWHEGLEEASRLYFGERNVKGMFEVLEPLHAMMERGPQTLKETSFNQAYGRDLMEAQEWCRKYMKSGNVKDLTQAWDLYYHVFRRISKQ

Regarding `O=C(O)c1ccc2ccccc2n1`, the Kd is > 4 mM (inactive).
Turning to `CC(C)[C@@H]1CC[C@@H](C)C[C@H]1O`, the Kd was > 4 mM (inactive).
As to `COC(=O)Nc1nc2c(s1)CCCC2`, the Kd was > 4 mM (inactive).
Then `CS(=O)(=O)c1cccc(C(=O)Nc2nccs2)c1`, with > 4 mM (inactive).
Then `CN(C)Cc1nc2c([nH]1)c(=O)[nH]c(=O)n2C`, with > 4 mM (inactive); and `Cc1[nH]n(-c2ccccc2)c(=O)c1[N+](=O)[O-]`, with > 4 mM (inactive).
Then `O=C(O)C1COc2ccccc2C1` (stereo unspecified), with > 4 mM (inactive).
As for `CCCn1cnn2c(=O)cc(C)nc12`, the Kd was > 4 mM (inactive).
To `O=c1c2c(nc3nc(Cc4ccccc4)[nH]n13)CCC2` belongs > 4 mM (inactive).
On to `COC(=O)c1sc(N)nc1C`, for which the Kd was > 4 mM (inactive).
Take `CC(=O)Nc1cnn(-c2ccccc2)c(=O)c1Cl`: the Kd was > 4 mM (inactive).
Regarding `CCCN1CCC(N2CCC(O)CC2)CC1`, the Kd was > 4 mM (inactive).
For the molecule `Nc1nc(SCC(=O)c2ccc([N+](=O)[O-])cc2)n[nH]1`, the Kd is > 4 mM (inactive).
Turning to `COc1c(C(=O)N2CCCC2)ccc2ccccc12`, the Kd is > 4 mM (inactive).
To `O=C1COc2ccccc2C(=O)N1` belongs > 4 mM (inactive); to `Cc1nc(-c2cnccn2)sc1C(=O)O`, > 4 mM (inactive); to `CC(C)c1c(O)ccc2c1CCC1[C@@](C)(C=O)CCC[C@]21C` (stereo partly specified), > 4 mM (inactive).
Then `O=CN1CCN(C2CC(=O)N(c3ccccc3)C2=O)CC1` (stereo unspecified), with > 4 mM (inactive); and `OCC1CCCN2CCCCC12` (stereo unspecified), with > 4 mM (inactive); and `Cc1ccc(=O)[nH]c1`, with > 4 mM (inactive).
Then `Nc1ccc(N2CCCCC2)cc1`, with > 4 mM (inactive); and `NS(=O)(=O)c1ccc(NC(=O)/C=C\C(=O)O)cc1`, with > 4 mM (inactive).
In the case of `COc1cc(C2NC(=S)NC(C)=C2C(C)=O)ccc1O` (stereo unspecified), the Kd was > 4 mM (inactive).
Then `COc1cc([C@@H]2c3cc4c(cc3[C@H](OC(C)=O)[C@H]3COC(=O)[C@@H]23)OCO4)cc(OC)c1OC`, with > 4 mM (inactive); and `CC(=O)O[C@@H]1CC[C@@]2(C)C(CC[C@]3(C)C2CC=C2C4CC(C)(C)CC[C@]4(C(=O)O)CC[C@]23C)C1(C)C` (stereo partly specified), with > 4 mM (inactive); and `Cc1ccc(C(=O)Nc2nnc(-c3ccncc3)s2)o1`, with > 4 mM (inactive).
To `C=C1CCC2[C@](C)(CO)[C@H](O)CC[C@@]2(C)[C@@H]1C/C=C1/C(=O)OC[C@H]1O` (stereo partly specified) belongs > 4 mM (inactive).
As to `Cn1cccc1C(=S)N1CCOCC1`, the Kd was > 4 mM (inactive).
With `c1ccc(C2NCCc3[nH]cnc32)cc1` (stereo unspecified), the Kd was > 4 mM (inactive).
Consider `O=C1NC(=O)C(=Cc2cccs2)C(=O)N1`, for which the Kd was > 4 mM (inactive).
As for `Cc1cccc(N2C(=O)CC(=O)NC2=O)c1`, the Kd was > 4 mM (inactive).
On to `NC(=O)CSc1nc2ccccc2o1`, for which the Kd is > 4 mM (inactive).
To `Cn1c(O)c(C=NCC2CCNCC2)c(=O)n(C)c1=O` belongs > 4 mM (inactive).
Then `O=S1(=O)CCC(NC(=S)N2CCCCC2)C1` (stereo unspecified), with > 4 mM (inactive); and `CC(=O)c1ccc(Cc2cnc(N)s2)cc1`, with > 4 mM (inactive); and `Nc1cccc(S(N)(=O)=O)c1`, with > 4 mM (inactive).
To `O=C1CSC(=Nc2cccc(C(=O)O)c2)N1` belongs > 4 mM (inactive).
Turning to `CSc1nnc2c(n1)OC(C)=Nc1ccccc1-2`, the Kd is > 4 mM (inactive).
For `CC(=O)c1cc(CN2C(=O)c3ccccc3C2=O)cs1`, the Kd was > 4 mM (inactive).
Then `CN1CCn2c1nc(N1CCOCC1)nc2=O`, with > 4 mM (inactive); and `CSc1nc2cc(F)c(F)cc2n1C`, with > 4 mM (inactive); and `CC(=O)Nc1ccc(C(=O)N2CCOCC2)cc1Cl`, with > 4 mM (inactive).
Then `CN(C(=O)c1cc2cccnc2n(C)c1=O)c1ccccc1`, with > 4 mM (inactive).
For the molecule `NC(=O)C1CCN(C(=S)c2ccccc2)CC1`, the Kd is > 4 mM (inactive).
For `Nc1nsc(-c2ccccc2)n1`, the Kd is > 4 mM (inactive).
Then `CCC(C)C(=O)O[C@H]1[C@H](O)C2C(CN3CC(C)CCC3[C@@]2(C)O)C2C[C@]34O[C@]5(O)C(OC(=O)C(C)(O)C(C)O)CC[C@@]3(C)C5C(OC(C)=O)[C@@H](OC(C)=O)C4[C@@]21O` (stereo partly specified), with > 4 mM (inactive); and `CC(=O)N1CCN(C2CCSC2)CC1` (stereo unspecified), with > 4 mM (inactive).
To `N[C@@H](Cc1ccc(O)c(O)c1)C(=O)O` belongs > 4 mM (inactive); to `CC(=O)CC(=O)N1C(O)CC[N+]1(C)C` (stereo unspecified), > 4 mM (inactive); to `Nc1ccccc1N=C1CNC(=O)C1`, > 4 mM (inactive).
To `O=C(O)Cn1nnn(-c2ccccc2)c1=S` belongs > 4 mM (inactive); to `Cc1c(C(=O)O)cnn1-c1ccccc1`, > 4 mM (inactive).
Turning to `O=C(O)CCc1c[nH]c2ccccc12`, the Kd is > 4 mM (inactive).
In the case of `Cc1nn(-c2ccccc2)nc1C(N)=O`, the Kd is > 4 mM (inactive).
As to `COc1ccc(C)cc1S(N)(=O)=O`, the Kd was > 4 mM (inactive).
To `COc1nc(C)ccc1-c1noc(-c2ccco2)n1` belongs > 4 mM (inactive); to `CN1C2CC(OC(=O)[C@H](CO)c3ccccc3)C[C@H]1[C@H]1OC21` (stereo partly specified), > 4 mM (inactive); to `COc1cc(O)c(C)c(O)c1`, > 4 mM (inactive).
On to `O=C(c1cc(-c2ccccc2)on1)N1CCCC1`, for which the Kd was > 4 mM (inactive).
To `CCOC(=O)C1CN(C)CCN1C` (stereo unspecified) belongs > 4 mM (inactive).
On to `Fc1ccc(NC2=NCCS2)cc1Cl`, for which the Kd is > 4 mM (inactive).
In the case of `NCc1ccc(-c2cccs2)s1`, the Kd is > 4 mM (inactive).
To `N/C(=N/S(=O)(=O)c1cccs1)c1ccccc1` belongs > 4 mM (inactive); to `O=C1CCCC(=O)N1Cc1ccco1`, > 4 mM (inactive).
`O=C1CSC(=Nc2ccc(Cl)cc2)N1`: the Kd is > 4 mM (inactive).
As for `Cc1noc(-c2ccccc2)c1C(=O)O`, the Kd is > 4 mM (inactive).
To `Cn1ncc(C(=O)NC2CCCCC2)c1Cl` belongs > 4 mM (inactive); to `O=C1CSC(=Nc2ccccc2)N1`, > 4 mM (inactive); to `NCCC(=O)N[C@@H](Cc1cnc[nH]1)C(=O)O`, > 4 mM (inactive).
Then `O=[n+]1c2c(n([O-])c3ccccc31)CCCC2`, with > 4 mM (inactive); and `NS(=O)(=O)c1ccc(N2CCCC2=O)cc1`, with > 4 mM (inactive); and `CC(C1OC(C)(C)C(O)C1O)[C@@H]1CC[C@]2(C)C3=CCC4C(C)(C)C(=O)CC[C@]4(C)C3CC[C@@]12C` (stereo partly specified), with > 4 mM (inactive).
To `COC(=O)c1cncc(C(=O)OC)c1` belongs > 4 mM (inactive); to `O=NN1C(=O)c2ccccc2C1=O`, > 4 mM (inactive).
As for `O=C(NC1=NCCS1)c1cccc(F)c1`, the Kd was > 4 mM (inactive).
To `COc1cc(O)cc(/C=C/c2ccccc2)c1` belongs > 4 mM (inactive); to `Cc1cc(OC(=O)c2c(C)cc(O)cc2O)cc(O)c1C(=O)O`, > 4 mM (inactive).
To `O=C(O)c1ccc(-c2ccccn2)s1` belongs > 4 mM (inactive); to `Nc1cccc(-c2cnco2)c1`, > 4 mM (inactive); to `COc1cc2ccc(=O)oc2c(OC)c1OC`, > 4 mM (inactive).
In the case of `O=S1(=O)CCC(NC(=S)Nc2ccc(O)cc2)C1` (stereo unspecified), the Kd is > 4 mM (inactive).
As for `O=C(Cc1c(F)cccc1Cl)Nc1ccncc1`, the Kd is > 4 mM (inactive).
Then `O=C(Nc1ccccc1N1CCCC1)c1cccnc1`, with > 4 mM (inactive); and `CNC(=O)C(=O)Nc1cccc(Cl)c1`, with > 4 mM (inactive).
To `CCN1CC2(C)CC[C@H](OC)[C@]34C2[C@H](O)C2(OCO[C@@]25C[C@H](OC)[C@H]2C[C@]3(O)C5[C@H]2O)C14` belongs > 4 mM (inactive); to `NC1CN2CCC1CC2` (stereo unspecified), > 4 mM (inactive); to `Cc1cc(=O)n(CCc2ccccc2)c(O)c1C#N`, > 4 mM (inactive).
To `O=C(CCc1n[nH]c(=O)[nH]c1=O)NCc1ccccc1` belongs > 4 mM (inactive).
Turning to `Oc1ccc(C(=S)N2CCOCC2)cc1`, the Kd is > 4 mM (inactive).
To `O=c1oc(-c2ccccc2)nc2c1cnn2-c1ccccc1` belongs > 4 mM (inactive).
`COc1ccc(C[C@H]2NC[C@H](O)[C@H]2OC(C)=O)cc1`: the Kd was > 4 mM (inactive).
To `Fc1cccc(F)c1CN1CCN(c2ncccn2)CC1` belongs > 4 mM (inactive).
To `O=c1[nH]nnc2sc3c(c12)CCCC3` belongs > 4 mM (inactive).
As to `Cc1ccc(-n2nnnc2SCC(N)=O)c(C)c1`, the Kd was > 4 mM (inactive).
To `CC(=O)Nc1ccncc1NC(C)=O` belongs > 4 mM (inactive); to `CC[C@@]1(O)C(=O)OCc2c1cc1n(c2=O)Cc2cc3ccccc3nc2-1`, > 4 mM (inactive).
On to `O=C1C2C3C=CC(C3)C2C(=O)N1CCO` (stereo unspecified), for which the Kd was > 4 mM (inactive).
Regarding `COC(=O)C[C@H]1C2(C)CC34OC5(C)O[C@@]6([C@H](OC(C)=O)C(OC(C)=O)[C@]7(C)C(/C(=C(/O)C(C)C)C(=O)O[C@H]7c7ccoc7)[C@@]6(O5)[C@H](OC(C)=O)[C@@]3(O)C2OC(=O)C(C)C)[C@]14C` (stereo partly specified), the Kd was > 4 mM (inactive).
Turning to `CC(C)=CCCC1(C)C=Cc2c(O)c3c(c(CC=C(C)C)c2O1)OC12C(=CC4CC1C(C)(C)OC2(C/C=C(/C)C(=O)O)C4=O)C3=O` (stereo unspecified), the Kd is > 4 mM (inactive).
Then `Cc1nc(N2CCOCC2)[nH]c(=O)c1C`, with > 4 mM (inactive).
Then `CCOC(=O)c1snnc1-c1ccccc1`, with > 4 mM (inactive).
